≈ marks a conversion by molar mass, not a printed value.
Tests used:
[1] = Hemolytic activity assay (cytotoxicity on RBCs); assay type: cell-based, rat; details: rat, washed erythrocytes (RBCs) suspended in PBS, 60 min at 37°C; for hemolysis at 60 min, 62.5 μg/mL: pH 7.4, 62.5 μg/mL; for hemolysis at 60 min, 125 μg/mL: pH 7.4, 125 μg/mL; for hemolysis at 60 min, 250 μg/mL: pH 7.4, 250 μg/mL; for hemolysis at 60 min, 500 μg/mL: pH 7.4, 500 μg/mL; for hemolysis at 60 min, 1000 μg/mL: pH 7.4, 1,000 μg/mL
Method: (§1) The hemolytic effect of different compounds was evaluated using an existing method. ([Diaconu et al., 2020]). One milliliter of rat blood was collected, added to a sterile, screw-top EDTA tube, and centrifuged at 3000 rpm for 20 min. The upper layer was decanted, and the erythrocytes were rinsed several times with 10 mL of cooled isotonic and sterile phosphate-buffered saline (PBS) with a pH of 7.4. The rinsed cells were re-suspended in 20 mL sterile, cold PBS. The compounds (serial dilutions of 62.5–1,000 μg/mL in DMSO) were added to the erythrocyte solution and incubated for 60 min at 37°C. After centrifugation at 3000 rpm for 10 min, the absorbance of hemoglobin in the supernatant at 540 nm was used to calculate the hemolysis rate. Triton X-100 (0.1% in PBS) was used as a positive control, and the vehicle (PBS/DMSO) was used as the negative control. The hemolysis percentage was calculated as follows: Hemolysis percentage = (Ab of sample − Ab of negative control)/(Ab of positive control–Ab of negative control) × 100.

RBCs = test: Hemolytic activity assay (cytotoxicity on RBCs); assay type: cell-based, rat; details: for IC50: Rattus norvegicus, read-out: IC50: sample concentration causing 50% hemolysis of RBCs, highest tested concentration 1,000 μg/mL
Method: as §1

Cryptosporidium oocysts = test: Oocyst shedding in feces of Cryptosporidium-infected immunosuppressed mice (modified Ziehl–Neelsen stain); assay type: in vivo; details: compounds 100 mg/kg/day, NTZ 250 mg/kg/day, orally from 7th day post-infection for 10 days; for Shed oocysts/mg (Mean ± SD): immunosuppressed infected mice, feces 30 days post infection; for R%: reduction percent in oocyst count: vs infected non-treated G2
From the text: Cryptosporidium oocysts were obtained from the Parasitology Lab, Theodor Bilharz Research Institute, Giza, Egypt. Before infection, the oocysts were concentrated and counted in PBS using a hemocytometer. To maintain the organism cycle, five mice were inoculated with 3000–3500 oocysts using a tuberculin syringe in an intra-esophageal manner. ([Operario et al., 2015]).
Eighty healthy laboratory-bred adult male Swiss albino mice weighing 30–40 g were purchased from the animal house of the Faculty of Pharmacy, Pharos University. The animals were allowed to acclimatize for 1 week to the environmental conditions and housed in grouped plastic cages away from direct sunlight, under appropriate sanitary conditions and controlled temperature and humidity.
Immune suppression was induced and maintained throughout the experiment by administering dexamethasone (Dexazone, Al Kahira Pharmaceutical and Chemical Industries) through oral-gastric gavage at a dose of 0.25 mg/g/d for 14 consecutive days prior to inoculation with Cryptosporidium oocysts. ([Najoom et al., 2021]).
On day 15 of dexamethasone treatment, mice in the infected groups were inoculated with 10^4 Cryptosporidium oocysts using oral-gastric gavage. Before infection, oocysts were concentrated and counted in PBS using a hemocytometer.
Mice were distributed equally into eight groups of 10 each. At the end of the experiment, all animals were anesthetized for parasitological, ultrastructural, immunological, and biochemical studies. Mice grouping details are provided in the Supplementary Material.
On the final day of the experiment (30 days post infection), fresh fecal pellets from the infected mice in each group were collected to count the number of oocysts. Every sample was homogenized through suspension in double-distilled H2O. Subsequently, a fecal smear of 1 mg feces was prepared and stained using the modified Ziehl–Neelsen staining method. The stained fecal smear was examined microscopically, and the Cryptosporidium oocysts were counted. The number of oocysts per mg feces for each mouse was tabulated as the mean value for each group. All reported data represent the means of three independent trials.

TNF-α = test: Serum TNF-α in infected immunosuppressed mice (ELISA); assay type: in vivo; details: compounds 100 mg/kg/day, NTZ 250 mg/kg/day, orally 10 days, mean ± SD
Method: (§2) Serum concentrations of IFN-γ, TNF-α, IL-6, and IL-10 for each group were determined using an enzyme-linked immunosorbent assay reader, following the manufacturer’s protocol.

IFN-γ = test: Serum IFN-γ in infected immunosuppressed mice (ELISA); assay type: in vivo; details: compounds 100 mg/kg/day, NTZ 250 mg/kg/day, orally 10 days, mean ± SD
Method: as §2

IL-6 = test: Serum IL-6 in infected immunosuppressed mice (ELISA); assay type: in vivo; details: compounds 100 mg/kg/day, NTZ 250 mg/kg/day, orally 10 days, mean ± SD
Method: as §2

IL-10 = test: Serum IL-10 in infected immunosuppressed mice (ELISA); assay type: in vivo; details: compounds 100 mg/kg/day, NTZ 250 mg/kg/day, orally 10 days, mean ± SD
Method: as §2

[2] = tested on: small intestinal epithelial cells; test: TEM of small intestine sections of treated infected mice; assay type: in vivo
Method: The small intestine of each mouse was removed, cut into small pieces (1 mm^3), fixed in 2% glutaraldehyde in 0.1 M phosphate buffer, postfixed in 1% osmium tetraoxide for 2 h at 4°C, dehydrated, and embedded in Epon. Semi-thin and ultrathin sections (two samples per mouse) were prepared using an ultramicrotome. The sections were stained and analyzed using a transmission electron microscope.

| SMILES | hemolysis at 60 min, 62.5 μg/mL [1] | hemolysis at 60 min, 125 μg/mL [1] | hemolysis at 60 min, 250 μg/mL [1] | hemolysis at 60 min, 500 μg/mL [1] | hemolysis at 60 min, 1000 μg/mL [1] | IC50 (RBCs) | Shed oocysts/mg (Mean ± SD) (Cryptosporidium oocysts) | R%: reduction percent in oocyst count (Cryptosporidium oocysts) | TNF-α (TNF-α) | IFN-γ (IFN-γ) | IL-6 (IL-6) | IL-10 (IL-10) | Hemolysis % (RBCs; 1,000 μg/mL, 60 min at 37°C) | TEM ultrastructure of small intestine sections [2] |
| --- | --- | --- | --- | --- | --- | --- | --- | --- | --- | --- | --- | --- | --- | --- |
| Cc1ccc(C(C)C)c(OCC(=O)Nn2c(=O)c3cc4c(=O)n(NC(=O)COc5cc(C)ccc5C(C)C)c(=O)c4cc3c2=O)c1 [Compound 9, N,N'-(1,3,5,7-tetraoxopyrrolo[3,4-f]isoindole-2,6(1H,3H,5H,7H)-diyl)bis(2-(2-isopropyl-5-methylphenoxy)acetamide)] | 0% | 0% | 0% | 0% | 35% | 1560 µg/mL (≈ 2.48 mM) | 15.4 ± 0.52 oocysts/mg | 55% | 16.2 ± 1.03 pg/mL | 534.2 ± 1.26 pg/mL | 215.7 ± 1.15 pg/mL | 416.8 ± 0.63 pg/mL | – | – |
| Cc1ccc(C(C)C)c(OCC(=O)NN2C(=O)c3cccc4cccc(c34)C2=O)c1 [Compound 7a, N-(1,3-dioxo-1H-benzo[de]isoquinolin-2(3H)-yl)-2-(2-isopropyl-5-methylphenoxy) acetamide] | 0% | 0% | 0% | 5.02% | 6.18% | 6750 µg/mL (≈ 16.8 mM) | 16.8 ± 0.63 oocysts/mg | 51% | 15.9 ± 0.87 pg/mL | 608.8 ± 2.48 pg/mL | 237.4 ± 2.23 pg/mL | 434.2 ± 1.13 pg/mL | 6.1873% | – |
| Cc1ccc(C(C)C)c(OCC(=O)NN2C(=O)c3ccc(C(=O)O)cc3C2=O)c1 [Compound 5b, 2-(2-(2-Isopropyl-5-methylphenoxy)acetamido)-1,3-dioxoisoindoline-5-carboxylic acid] | 0% | 0% | 0% | 0% | 0% | – | 14.7 ± 0.67 oocysts/mg | 57% | 13.7 ± 1.25 pg/mL | 494.2 ± 3.15 pg/mL | 181.7 ± 149 pg/mL | 387.8 ± 0.78 pg/mL | – | – |
| Cc1ccc(C(C)C)c(OCC(=O)NN2C(=O)c3ccccc3C2=O)c1 [Compound 5a, N-(1,3-dioxoisoindolin-2-yl)-2-(2-isopropyl-5-methylphenoxy)acetamide] | 0% | 0% | 0% | 0% | 0% | – | 13.2 ± 1.034 oocysts/mg | 62% | 13.1 ± 0.99 pg/mL | 477.8 ± 1.61 pg/mL | 176.8 ± 0.91 pg/mL | 327.6 ± 1.34 pg/mL | – | – |
| Cc1ccc(C(C)C)c(OCC(=O)NN2C(=O)c3cccc4c(N)ccc(c34)C2=O)c1 [Compound 7b, N-(6-amino-1,3-dioxo-1H-benzo[de]isoquinolin-2(3H)-yl)-2-(2-isopropyl-5-methylphenoxy)acetamide] | 0% | 0% | 0% | 0% | 0% | – | 11.5 ± 0.85 oocysts/mg | 67% | 11.8 ± 1.03 pg/mL | 415.2 ± 2.57 pg/mL | 143.1 ± 1.1 pg/mL | 277.2 ± 1.47 pg/mL | – | healthy microvilli (slightly disfigured and disarranged) |
| CC(=O)Oc1ccccc1C(=O)Nc1ncc([N+](=O)[O-])s1 [NTZ, nitazoxanide, reference compound] | – | – | – | – | – | – | 10.4 ± 0.51 oocysts/mg | 70% | 7.8 ± 0.91 pg/mL | 422.1 ± 3.21 pg/mL | – | – | – | normal ultrastructure and regularly arranged apical microvilli with oval euchromatic nuclei |
